{
  "source": "patent US11072634B2",
  "about": "“Inhibitors of transglutaminases” (Zedira GmbH, priority 2016, dated 2021)",
  "biological_target": "T1, TG2 (Homo sapiens, UniProt P21980)",
  "T1 sequence (P21980 1-687)": "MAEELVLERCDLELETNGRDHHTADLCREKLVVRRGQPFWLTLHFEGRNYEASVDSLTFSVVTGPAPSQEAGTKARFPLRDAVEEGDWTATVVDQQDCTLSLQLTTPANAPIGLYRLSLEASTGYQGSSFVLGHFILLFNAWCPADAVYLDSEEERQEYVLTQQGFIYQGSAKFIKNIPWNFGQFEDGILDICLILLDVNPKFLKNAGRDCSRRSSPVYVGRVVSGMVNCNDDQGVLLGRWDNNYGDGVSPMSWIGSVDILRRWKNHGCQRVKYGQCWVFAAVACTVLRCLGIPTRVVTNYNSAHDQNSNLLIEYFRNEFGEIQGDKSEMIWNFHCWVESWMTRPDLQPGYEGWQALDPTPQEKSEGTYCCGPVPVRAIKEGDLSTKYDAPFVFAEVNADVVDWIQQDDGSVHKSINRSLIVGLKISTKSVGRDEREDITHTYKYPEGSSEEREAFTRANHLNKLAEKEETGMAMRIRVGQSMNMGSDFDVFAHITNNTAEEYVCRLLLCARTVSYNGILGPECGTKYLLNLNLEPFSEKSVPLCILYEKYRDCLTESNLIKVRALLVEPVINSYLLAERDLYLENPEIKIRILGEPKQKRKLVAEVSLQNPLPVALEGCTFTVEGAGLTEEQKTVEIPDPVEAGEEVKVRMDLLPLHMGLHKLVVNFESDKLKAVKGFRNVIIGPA",
  "experiment": "Transglutaminase activity of homogenates of LPS-stimulated BEAS-2B cells",
  "assay_type": "cell-based",
  "conditions": "0-200 μM",
  "protocol": "A) Transglutaminase activity of homogenates from BEAS-2B-cell grown in the presence of 0-200 μM E22 and stimulated with LPS determined by TG2-selective Tissue Transglutaminase Pico-Assay Kit (#M003, Zedira, Darmstadt, Germany) according to the manufacturer's instructions.\nExtracellular matrix deposition is a hallmark in pulmonary fibrosis. The BEAS-2B cell line is derived from normal human bronchial epithelium.\nBEAS-2B cells were grown at 37° C. and 5% CO2 in 25 mM HEPES-buffered M199-medium (Merck, Darmstadt) containing 10% FBS, […], 2 mM glutamine, 100 U/ml penicillin (supplemented with […] apotransferrin, 20 ng/ml human epidermal growth factor (EGF), […] insulin, and 0.361 mg/ml hydrocortisone). For the induction of airway fibrosis by epithelial-to-mesenchymal transition (EMT), cells were seeded at 80% confluence on six-well plates. After one day cultivation 4 μg/mL LPS as well as 0 μM, 100 μM or 200 μM E22 were added and then incubated for further 72 h.",
  "data": [
    {"smiles": "CCCCCNC(=O)C(=O)CC[C@H](NC(=O)[C@@H]1CCCN1C(C)=O)C(=O)Nc1cccn(CC(=O)NCC(CC)CC)c1=O", "note": "[Compound E22, (S)-2-((S)-1-acetylpyrrolidine-2-carboxamido)-N1-(1-(2-(2-ethylbutylamino)-2-oxoethyl)-2-oxo-1,2-dihydropyridin-3-yl)-5-oxo-N6-pentylhexanediamide]", "values": [
      {"measurement": "Transglutaminase activity", "value": "dose dependent reduction"}
    ]}
  ]
}
